Assay results from patent publication US20060246131A1, “Use of metformin to counteract weight gain associated with psychotropic medications” (priority 2005, published 2006).

What was measured:
[1] = person treated with GEODON; cited from earlier work
[2] = Case study: mood and behavior of a patient with Bipolar Affective Disorder NOS on aripiprazole; format: in vivo, human; conditions: person, BPAD NOS; aripiprazole 5 mg once daily; 2 weeks later
Description: A person presented with behavioral problems.
The time of onset for childhood BPAD is frequently during the later years of the latency period, and typically includes rapid cycling, with disturbances in sleep, behavioral issues including aggression, grandiosity, and hyper-sexuality. At the time of evaluation, it was difficult to know if the patient also had co-occurring ADHD, combined subtype and Oppositional Defiant Disorder. Bipolar Affective Disorder, NOS appeared to be the more parsimonious diagnosis.
Additionally they were asked to keep a mood chart.

[3] = metformin 500 mg twice daily together with aripiprazole, over a 3-month period
[4] = cited from earlier work

O=C1Cc2cc(CCN3CCN(c4nsc5ccccc45)CC3)c(Cl)cc2N1 [GEODON]
weight gain [1]: significant weight gain

O=C1CCc2ccc(OCCCCN3CCN(c4cccc(Cl)c4Cl)CC3)cc2N1 [aripiprazole, 7-[4-[4-(2,3-dichlorophenyl)-1-piperazinyl]butoxy]-3,4-dihydrocarbostyril]
behavioral outcome on return visit [2]: much more settled, with fewer outbursts, and no behavioral concerns

CN(C)C(=N)N=C(N)N [metformin, N,N-dimethylimidocarbonimidic diamide]
Body Mass Index (BMI) after treatment ([3]; BMI from 24.9): 22.6
decrease in body weight [3]: seven

CN(C)C(=N)NC(=N)N.Cl [Metformin hydrochloride, N,N-dimethylimidocarbonimidic diamide hydrochloride]
pH of a 1% aqueous solution [4]: 6.68
